US5698532A, “Pyrimidine nucleosides and methods for treating viral infections with same” (priority 1995, dated 1997)
pIC50: −log10 of the molar value. Read-outs that look alike come from different tables or passages of the source. Each block holds one compound with its values, some of them ahead of it.

Experiments:
[1] = Oral bioavailability (rat); assay type: in vivo; conditions: for bioavailability: in vivo, po
HSV-2 thymidine kinase = HSV-2 thymidine kinase (Human herpesvirus 2, UniProt P89446); assay: inhibition of HSV-2 thymidine kinase; assay type: biochemical
Sequence of HSV-2 thymidine kinase (P89446 whole entry): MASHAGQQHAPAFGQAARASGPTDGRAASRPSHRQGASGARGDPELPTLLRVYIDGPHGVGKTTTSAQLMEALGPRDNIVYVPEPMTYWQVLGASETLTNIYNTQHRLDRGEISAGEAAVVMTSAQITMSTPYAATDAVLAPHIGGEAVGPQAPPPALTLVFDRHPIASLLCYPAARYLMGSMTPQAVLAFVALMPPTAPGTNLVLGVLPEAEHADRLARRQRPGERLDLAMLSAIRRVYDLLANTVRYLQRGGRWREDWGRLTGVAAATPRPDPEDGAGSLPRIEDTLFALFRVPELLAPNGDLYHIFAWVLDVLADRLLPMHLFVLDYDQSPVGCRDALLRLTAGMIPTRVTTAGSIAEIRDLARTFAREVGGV
Method: In this test procedure, the assay mixture contains 50 mmol Tris HCl, pH 8, 5 mmol magnesium chloride, 5 mmol ATP, 0.3 μmol ^3 H-thymidine (50 Ci/mmol), suitably diluted enzyme preparation and various concentrations of test compounds in a total volume of 100 μl. Assays are incubated at 37° C. for 30 minutes and the reaction is terminated by immersion in a boiling water bath for 2 minutes. 85 μl aliquots from each assay are then dried on to DEAE-cellulose paper discs and the unphosphorylated ^3 H-thymidine is removed by washing in 4 mmol ammonium formate. The radioactivity remaining bound to the discs is then measured by scintillation spectrophotometry. The degree of inhibition at each concentration of test compound is expressed as a percentage of the control reaction (100%) after subtracting a measured blank value which represents the amount of radioactivity bound to the disc from a reaction containing heat-inactivated enzymes. The lC50 value, namely the concentration of test compound which inhibits enzyme activity by 50%, is then calculated.

[2] = 37° C., 30 minutes, pH 8, 3H-thymidine, read-out: Activity against HSV-2 TK, IC50

- bioavailability [1]: 14.4%
SMILES: CCc1cn([C@@H]2O[C@H](CNC(=O)C(C)Oc3ccc(Cl)cc3Cl)[C@@H](O)[C@@H]2F)c(=O)[nH]c1=O (single isomer, unassigned) [Compound B, diastereoisomer a]

SMILES: CCc1cn([C@@H]2O[C@H](CNC(=O)[C@H](C)Oc3cc(OC)c(Cl)cc3Cl)[C@@H](O)[C@@H]2F)c(=O)[nH]c1=O [Compound (I), 1-[5-[2(S)-(2,4-dichloro-5-methoxy-phenoxy)propionamido]-2,5-dideoxy-2-fluoro-β-D-arabino-furanosyl]-5-ethyluracil]
- pIC50 (HSV-2 thymidine kinase): 9.74
- bioavailability [1]: 26%

- pIC50 (HSV-2 thymidine kinase; [2]): 8.43
SMILES: CCc1cn([C@H]2C[C@H](O)[C@@H](CNC(=O)C(C)Oc3ccc(Cl)cc3Cl)O2)c(=O)[nH]c1=O (mixture of isomers) [Compound A]

- bioavailability [1]: 2.84%
SMILES: CCc1cn([C@H]2C[C@H](O)[C@@H](CNC(=O)C(C)Oc3ccc(Cl)cc3Cl)O2)c(=O)[nH]c1=O (single isomer, unassigned) [Compound A, diastereoisomer a]

- Oral bioavailability (rat) [1]: too low to calculate
SMILES: CCc1cn([C@H]2C[C@H](O)[C@@H](CNC(=O)C(C)Oc3ccc(Cl)cc3Cl)O2)c(=O)[nH]c1=O (single isomer, unassigned) [compound A, diastereoisomer b]

- Oral bioavailability (rat) [1]: 12.9%
SMILES: CCc1cn([C@@H]2O[C@H](CNC(=O)C(C)Oc3ccc(Cl)cc3Cl)[C@@H](O)[C@@H]2F)c(=O)[nH]c1=O (single isomer, unassigned) [Compound B, diastereoisomer b]

- pIC50 (HSV-2 thymidine kinase; [2]): 8.40
SMILES: CCc1cn([C@@H]2O[C@H](CNC(=O)C(C)Oc3ccc(Cl)cc3Cl)[C@@H](O)[C@@H]2F)c(=O)[nH]c1=O (mixture of isomers) [Compound B]
